Key:
[1] = tested on: platelet aggregation in Dog PRP; test: In-Vitro Platelet Aggregation in PRP (ADP induced); format: cell-based; conditions: Canis lupus familiaris, ADP 50 um final concentration
Experimental: Healthy male or female dogs were fasted for 8 hours prior to drawing blood; then 30 ml whole blood was collected using a butterfly needle and 30 cc plastic syringe with 3 ml of 0.129 M buffered sodium citrate (3.8%). The syringe was rotated carefully as blood was drawn to mix the citrate. Platelet-rich plasma (PRP) was prepared by centrifugation at 975×g for 3.17 minutes at room temperature allowing the centrifuge to coast to a stop without braking. The PRP was removed from the blood with a plastic pipette and placed in a plastic capped, 50 mL Corning conical sterile centrifuge tube which was held at room temperature. Platelet poor plasma (PPP) was prepared by centrifuging the remaining blood at 2000×g for 15 minutes at room temperature allowing the centrifuge to coast to a stop without braking. The PRP was adjusted with PPP to a count of 2-3×10^8 platelets per mL. 400 uL of the PRP preparation and 50 uL of the compounds solution to be tested or saline were preincubated for 1 minute at 37° C. in a […].). 50 uL of adenosine 5' diphosphate (ADP) (50 um final concentration) was added to the cuvettes and the aggregation was monitored for 1 minute. All compounds are tested in duplicate. Results are calculated as follows: Percent of control=[(maximal OD minus initial OD of compound) divided by (maximal OD minus initial OD of control saline)]×100. The % inhibition=100-(percent of control).
The compounds tested and their median inhibitory concentrations (IC50) are recorded in Table I. IC50 's (dosage at which 50% of platelet aggregation is inhibited) were calculated by linear regression of the dose response curve.

[2] = tested on: ex vivo collagen induced platelet aggregation; test: Inhibition of ex vivo collagen induced aggregation (compound administered to dogs); set-up: species or system dog (Beagles); key: *: not active at the dose tested; conditions: intragastric (IG) administration to dogs; collagen induced aggregation in PRP ex vivo; dose not given
Experimental: The purpose of this assay is to determine the effects of antiplatelet compounds on ex vivo collagen induced platelet aggregation when administered either intravenously or orally to dogs.
Pretreatment (control) blood samples are drawn from either conscious or anesthetized dogs (Beagles) and centrifuged to prepare platelet rich plasma (PRP). Aggregatory response to collagen is measured in a aggregometer and used as Control. Compounds are administered, either intragasterically (either by capsule or stomach tube or intravenously). Blood samples are drawn at predetermined intervals after compound administration, PRP prepared and aggregation to collagen determined. Compound inhibition of aggregation is determined by comparing the aggregation response after compound administration to the pretreatment response.

What does the source list for `N=C(N)c1ccc(NC(=O)N2CCCC(C(=O)NC(CC(=O)O)c3cccnc3)C2)cc1` (stereo not drawn) [Example 2, β-[[N-3-[[[4-(aminoiminomethyl)phenyl]amino]carbonyl]piperidylcarbonyl]amino]-3-pyridinepropanoic acid]?
IC50 ([1]; 1 min, 37° C., aggregation monitored 1 minute): 850 nM; Ex Vivo Effect after IG Administration [2]: *

Which inhibition at 10 µM ([1]; at 10^-5 M, read-out: Dog PRP % Inh.) does the source give for `N=C(N)c1ccc(NC(=O)N2CCCC2C(=O)NC(CC(=O)O)c2cccnc2)cc1` (stereo not drawn) [Example 4, β-[[N-2-[[[4-(aminoiminomethyl)phenyl]amino]carbonyl]pyrrolidylcarbonyl]amino]-3-pyridinepropanoic acid] here?
Its inhibition at 10 µM is 30%.

`N=C(N)c1ccc(NC(=O)N2CCC(C(=O)NC(CC(=O)O)c3cccnc3)CC2)cc1` (stereo not drawn) [Example 6, β-[[N-[[[4-(aminoiminomethyl)phenyl]amino]carbonyl]4-piperidylcarbonyl]amino]-3-pyridinepropanoic acid] was tested. Which inhibition at 1 µM ([1]; at 10^-6 M, read-out: Dog PRP % Inh.) did it give?
The inhibition at 1 µM was 19%.
